According to article PMC11760092, “Pretreatment with serine protease inhibitors impairs Leishmania amazonensis survival on macrophages” (Parasites & Vectors, 2025):

Legend:
[1] = test system: Leishmania amazonensis-WT promastigotes; test: Antipromastigote assay (MTT); format: cell-based; settings: for IC50: 72 h of incubation, interval in brackets, read-out: Antileishmanial effect in Leishmania amazonensis IC50 Promastigote
Description: Leishmania amazonensis–WT promastigotes, in the logarithmic phase of growth, were transferred to 96-well culture plates (final concentration 2 × 10^6 cells/mL) and exposed to different concentrations of inhbitors during 72 h at 25 °C. The cell viability was evaluated by the 3-(4,5-dimethylthiazol-2-yl)-2,5 diphenyltetrazolium bromide (MTT) method (obtained from Sigma-Aldrich). The inhibitory concentration of 50% of parasite growth (IC50) values were calculated using GraphPad Prism 8 software […]. Three independent experiments in triplicate were performed. Amphotericin B (Cristália, São Paulo, SP, Brazil) was used as a reference drug.

[2] = test system: L. donovani promastigotes; set-up: method as in PMID 26040107; settings: concentration not given; cited from earlier work
[3] = test system: L. amazonensis promastigotes; set-up: method as in PMID 17726617; settings: 100 µM; cited from earlier work
[4] = test system: L. amazonensis in peritoneal macrophages; test: Promastigote pretreatment and infection of peritoneal macrophages; format: cell-based, Leishmania amazonensis; settings: for entry of promastigotes into macrophages: promastigotes pretreated 1 h, 0 h after 4 h interaction
Description: Leishmania amazonensis-RFP promastigotes were pretreated with different concentrations of inhbitors during 1 h at 25 °C. The cells were washed with PBS and used to infect peritoneal macrophages from BALB/c mice (10:1 ratio), not pretreated or pretreated with 0.5 ng/mL IFN-γ overnight, in 24-well plates. After 4 h of interaction, the plates were washed with PBS and (1) scraped to remove attached cells and read using a spectrofluorimeter (time = 0 h) or (2) incubated at 33 °C with 5% CO2 for 24 h, 48 h, and 72 h for later scraping and reading (times = 24 h, 48 h, and 72 h). Three experiments were performed, each one with three replicates.
The same experiment was repeated, but using 13 mm glass coverslips in 24-well plates. The fixation with ethanol and staining with Giemsa were performed. Subsequently, the slides were examined in an optical microscope (Olympus BX53, Shinjuku, Tokyo, Japan) and photographed (Olympus DP73, Shinjuku, Tokyo, Japan).

[5] = test system: L. donovani serine proteases; set-up: method as in PMID 26040107; settings: concentration not given; cited from earlier work
[6] = test system: Leishmania amazonensis-RFP promastigotes; test: Viability of promastigotes after 1 h of treatment with inhibitors; format: cell-based; settings: 1 h treatment, washed; 0 h, 24 h, 48 h and 72 h of incubation
Description: Leishmania amazonensis-RFP promastigotes were treated with different concentrations of inhibitors during 1 h at 25 °C and were washed with PBS. Then, these cells had their viability determined by fluorescence analysis using a spectrofluorimeter (time = 0 h) and were also reincubated in complete RPMI medium for subsequent analysis of cell viability after 24 h, 48 h, and 72 h (times = 24 h, 48 h, and 72 h) by fluorescence analysis.

[7] = test system: peritoneal macrophages from BALB/c mice; test: Cytotoxicity assay (MTT); format: cell-based; settings: 72 h of incubation; MTT; interval in brackets
Description: To determinate the toxicity of the inhibitors on mammalian cells, peritoneal macrophages from BALB/c mice, obtained by peritoneal lavage, in concentration of 2 × 10^6 macrophages/mL, were adhered in 96-well culture plates overnight at 37 °C with 5% CO2. The inhibitors were then added in different concentrations and incubated for 72 h at 37 °C and 5% CO2. Cell viability was also assessed by the MTT method. Cytotoxic concentration of 50% of macrophages (CC50) values were calculated using GraPadPrism 8 software. Three independent experiments in triplicate were performed.

[8] = test system: L. amazonensis (RFP) amastigotes; test: Antiamastigote assay (RFP fluorescence, infected peritoneal macrophages); format: cell-based; settings: 72 h of incubation; interval in brackets; read-out: Antileishmanial effect in Leishmania amazonensis IC50 Amastigote
Description: Peritoneal macrophages from BALB/c mice were obtained by peritoneal lavage and distributed in 24-well plates at 2 × 10^6 cells/mL in RPMI medium (Cultilab) containing 10% FBS and a 0.5% penicillin and streptomycin solution (complete RPMI). The plates were incubated for 1 h at 37 °C and 5% CO2, washed with phosphate-buffered saline (PBS), and then reincubated in complete RPMI medium overnight. The cells were washed again with PBS and infected with stationary growth phase L. amazonensis (RFP) promastigotes at a 10:1 ratio for 4 h at 33 °C. The plates were washed with PBS and the inhibitors were added at different concentrations and incubated for 72 h. After this time, each well was scraped to remove attached cells and the reading was taken with a spectrofluorimeter (FLx800, BioTek Instruments, Winooski, VT, USA) at 530 nm and 590 nm of excitation and emission, respectively. […] All assays were performed in triplicate and repeated three times. Results were calculated as the percentage of amastigote survival compared with the nontreated control group, and IC50 values were determined using GraphPad Prism 8 software.

[9] = test system: L. amazonensis promastigotes and amastigotes; settings: cited from earlier work
[10] = test system: L. amazonensis serine proteases; set-up: method as in PMID 25583728; settings: cited from earlier work
L. amazonensis = settings: mice infected with L. amazonensis; cited from earlier work

Compound	IC50 [1] [µM]	inhibition of the parasite's viability ([1]; promastigotes, 6.25 µM)	cell viability of L. donovani promastigotes (reduction) [2]	viability of L. amazonensis promastigotes [3]	entry of promastigotes into macrophages [4]	survival of parasites within macrophages ([4]; promastigotes pretreated 1 h with 100 µM, 48 h and 72 h of infection)	inhibition of the proteolytic activity [5] [%]	viability of promastigotes after 1 h of treatment, compared with the control [6]	CC50 [7] [µM]	IC50 [8] [µM]	permanence and survival of amastigotes within host cells ([4]; promastigotes pretreated 1 h with 200 µM or 6.25 µM, up to 72 h)	effect on promastigotes and amastigotes of L. amazonensis [9]	inhibition of L. amazonensis serine proteases [10]	lesion size (L. amazonensis)
Cc1ccc(S(=O)(=O)N[C@@H](CCCCN)C(=O)CCl)cc1 [TLCK]	52.5	around 10%	only did so after 15 h and 20 h	did not reduce promastigote viability	occurred similarly to the control	slightly reduced	18	did not change the viability	104	140				
O=S(=O)(F)Cc1ccccc1 [PMSF]	> 200				did not change the entry			did not change the viability	269	> 200	did not alter the permanence and survival			
epoxy-α-lapachone												effective against promastigotes and amastigotes	inhibited L. amazonensis serine proteases	reduction of the lesion size
